Measurements as given in PubChem BioAssay AID449762 (Southern Research Specialized Biocontainment Screening …, 2010).
Inconclusive results are not listed.

Test system: M. tuberculosis H37Rv growth inhibition, 7H9 media
Assay: M. tuberculosis growth inhibition, HTS (AID 449762);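 further: bacterial growth assessed after seven days of incubation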
Conditions: for IC90: measured here: IC90 growth inhibition

Row | SMILES | IC50 [µM] | IC90 [µM]
1 | COc1ccc(-n2nnnc2S(=O)(=O)CC(=O)N2CCCCC2)cc1 | 12.7 | 27
2 | CCOC(=O)c1nnc(-c2ccccc2)nc1Sc1ccccc1Cl | 20.7 | 49.2
3 | CCCCCn1c(=O)c2ccccc2n2c(CCl)nnc12 | 0.48 | 2.21
4 | O=C(/C=C/c1ccccc1)N1CCN(CCN2C(=O)c3cccc4cccc(c34)C2=O)CC1 | 1.95 | 3.87
5 | COc1ccc(NC(=O)CSC2=C(C#N)C(c3ccco3)C(C(=O)Nc3nc4ccccc4s3)=C(C)N2)cc1 (stereo unspecified) | 5.57 | 7.26
6 | COc1ccc(-c2nnc(SCC(=O)N3CCc4ccccc4C3)o2)cc1 | 17.6 | 29.2
7 | CCn1c(C)c(C)c2cc(C(=O)Nc3cccc(Cl)c3)ccc21 | 35 | > 100
8 | COc1ccccc1C(=O)NC(=Nc1nc2ccccc2o1)NC(=O)c1ccccc1OC | 96.3 | > 100
9 | COc1ccc(-c2c(-c3cc(OC)cc(OC)c3)n(C)c3ccc(-c4ccn[nH]4)cc23)cc1 | – | > 100
10 | O=C(NCC1CC1)c1cc([N+](=O)[O-])cc([N+](=O)[O-])c1 | 5.75 | 6.43
11 | Cc1nn(-c2ccccc2)c(N)c1C(c1ccc(C(C)C)cc1)c1c(C)nn(-c2ccccc2)c1N | 20.4 | 27.1
12 | CCOC(=O)c1c(-c2ccc(OC)cc2)csc1NC(=O)CNCc1ccco1 | 10.9 | 16.4
13 | CCOc1[nH]n(-c2ccccc2)c(=O)c1C=Nc1ccc(OC)cc1 | 36.5 | > 100
14 | CCCn1nc(C(=O)NNC(=O)c2ccc(C)c(C)c2)c2ccccc2c1=O | 11.2 | 15.9
15 | Cc1cc(=O)oc2c(C)c(OCC(=O)N3CCN(C(=O)C4COc5ccccc5O4)CC3)ccc12 (stereo unspecified) | 61.5 | 86.1
16 | OC(CNCC(c1ccc(Cl)cc1Cl)c1c[nH]c2ccccc12)c1ccccc1 (stereo unspecified) | 16.9 | 23.4
17 | COc1ccc(CNc2ncnc3c2[nH]c2cc(OC)c(OC)cc23)cc1 | 5.2 | 14.9
18 | CC(C)c1nc2scc(-c3ccc(Cl)cc3)c2c(=O)n1N | 81.8 | > 100
19 | CCC(=O)NC(=S)Nc1ccc(NC(=O)COc2ccc(Cl)cc2Cl)cc1 | 88.1 | > 100
20 | COc1ccc(N(CC(=O)Nc2cc(Cl)ccc2C)S(=O)(=O)c2c(C)n[nH]c2C)cc1 | 45.8 | 51.2
21 | O=C(NC1CCCC(C(F)(F)F)C1)c1ccc([N+](=O)[O-])o1 (stereo unspecified) | 2.71 | 12.3

Row | SMILES | IC50 [µM] | IC90 [µM]
22 | Cc1ccc2c(c1)c(/C=C/c1cc[n+](C)cc1)c(C)n2C | 5.13 | 6.8
23 | CN(C)c1ccnc2c[cH-]cc12.[Fe].c1ccc(-[c-]2[c-](-c3ccccc3)[c-](-c3ccccc3)[c-](-c3ccccc3)[c-]2-c2ccccc2)cc1 (stereo unspecified) | 13.7 | 17.4
24 | O=S1(=O)N(CCN2CC=C(c3c[nH]c4cc(F)ccc34)CC2)c2cccc3c2N1CCC3 | 11.1 | 11.7
25 | CCOc1ccc(N=CC2=C(O)CC(c3ccco3)CC2=O)cc1 (stereo unspecified) | 80.4 | > 100
26 | O=c1c(O)c(-c2cccs2)oc2ccccc12 | 12 | > 100
27 | Cc1cc(C)c(CSc2ncc(-c3ccc([N+](=O)[O-])cc3)[nH]2)c(C)c1 | 42.5 | 62.8
28 | COc1cc2cc(C(c3nnnn3C(C)(C)C)N3CCc4ccccc43)c(=O)[nH]c2cc1OC (stereo unspecified) | 97.4 | > 100
29 | Cc1cc(Cl)ccc1OCCCC(=O)NO | 17.6 | > 100
30 | Brc1ccc(-c2nc3ncccn3c2Nc2ccc3c(c2)OCCO3)o1 | 59.2 | 90.2
31 | CC1CCC(NC(=O)c2cc3c(s2)CCCC3)CC1 (stereo unspecified) | 40.1 | 57.1
32 | C/C(=C\C(=S)Nc1ccccc1)Nc1ccc2ccccc2c1 | 40.6 | 52.9
33 | O=C(/C(=C/c1ccc(Cl)cc1)c1nc2ccccc2[nH]1)c1cccs1 | 21.2 | 42.7
34 | CCCCCC(=O)NNC(=S)NC(=O)c1ccc([N+](=O)[O-])cc1 | 1.35 | 4.43
35 | CC(C)C[C@H]1C(=O)N2CCC[C@H]2[C@]2(O)O[C@](NC(=O)C3C=C4c5cccc6[nH]c(Br)c(c56)C[C@H]4N(C)C3)(C(C)C)C(=O)N12 (stereo partly specified) | – | > 100
36 | O=C(N/N=C\c1ccc[nH]1)c1cncc(Br)c1 | 25.2 | 49
37 | Cc1ccc(C)c(NNC(N)=S)c1 | 6.39 | 15.6
38 | CCn1c(C)nc2cc(C(=O)OC(C(F)(F)C(F)F)C(F)(F)C(F)F)ccc21 | 17.8 | 26.1
39 | O=C(CCC(=O)NC1CCCCCCC1)Nc1nnc(C(F)(F)F)s1 | 12 | 13.9
40 | CCOC(=O)CNC(=O)CNC(=O)c1nn(-c2ccc(OC)c(Cl)c2)c(=O)c2ccccc12 | 22.2 | > 100
41 | O=C(CN1CCC(n2nnc3cc(C(F)(F)F)ccc32)CC1)NCc1cccs1 | 37.5 | 47.8
42 | Cn1cnc([N+](=O)[O-])c1Sc1ccc(Br)cc1 | 8.81 | 16.9

Row | SMILES | IC50 [µM] | IC90 [µM]
43 | CCC1CSC(Nc2ccc(C(=O)/C=C/c3cccc(C)c3)cc2)=N1 (stereo unspecified) | 18.9 | 27.3
44 | O=C(N[C@H]1CCC(=O)N(CCSc2ccc(Br)cc2)CC1)OCc1ccccc1 | 23.3 | 28.6
45 | NNC(=S)NCc1ccc2c(c1)OCO2 | 23.8 | 26.8
46 | Cc1occc1-c1nnc(SCC(=O)NCCc2ccccc2)o1 | 9.83 | 20
47 | CN1C2CCC1/C(=C/c1ccccn1)C(=O)/C2=C\c1ccccn1 | 16.4 | 25.8
48 | O=C(N/N=C/c1ccc(Br)s1)c1cccs1 | 24.3 | > 100
49 | CCOC(=O)c1ccc(N=C2SC(C(=O)Nc3ccc(C(=O)O)cc3)CC(=O)N2Cc2cccs2)cc1 (stereo unspecified) | – | > 100
50 | CC(=O)N1CCN(c2ccc(Oc3ccc([N+](=O)[O-])c(C(F)(F)F)c3)cc2)CC1 | 7.54 | 19.3
51 | Cc1noc(C)c1COc1ccc(C(=O)OCC(=O)NC23CC4CC(CC(C4)C2)C3)cc1 | 8.33 | 24.5
52 | CCOC(=O)c1ccc(NC(=O)C(C)Sc2nc(O)c(-c3ccccc3)c(=O)[nH]2)cc1 (stereo unspecified) | 5.47 | 22.6
53 | Cc1ccc(/C=C/S(=O)(=O)NCC(=O)OCC(=O)Nc2c(F)cccc2F)cc1 | 5.26 | 13.2
54 | CC(C)(C)c1nn(-c2ccccc2)c2[nH]c(=O)c(CNCc3ccc4c(c3)OCO4)cc12 | 20.4 | 27.3
55 | Cn1nc(-c2ccccn2)nc2c(=O)n(C)c(=O)nc1-2 | 9.04 | 14.5
56 | CC(C)(C)c1ccc(OCCCC(=O)NC2=NCCS2)cc1 | 23 | 60.6
57 | CN=c1scc(-c2ccccc2Br)n1/N=C/c1ccc[nH]1 | 50 | 54.2
58 | COC(=O)c1cccc(C#CC(NP(=O)(c2ccccc2)c2ccccc2)c2ccccc2)c1 (stereo unspecified) | – | > 100
59 | CC1=NN(C(=O)c2ccc(Br)cc2)C(O)(c2ccccc2)C1 (stereo unspecified) | 48.1 | 65.6
60 | CC(=O)Nc1ccc(N2C(C(C)=O)=NN(c3ccc(Cl)cc3)C2c2sccc2C)cc1 (stereo unspecified) | 83.9 | 93.1
61 | O=C(c1cccc([N+](=O)[O-])c1)N1CCN(c2ccc(N3CCOCC3)nn2)CC1 | 19.7 | 26.6
62 | O=C1N=C(N2CCC(Cc3ccccc3)CC2)S/C1=C/c1cn[nH]c1-c1ccccc1 | 27.5 | > 100
63 | Cc1cc(C(=O)COC(=O)C2=COCCO2)c(C)n1-c1cccc(F)c1 | 4.83 | > 100

Row | SMILES | IC50 [µM] | IC90 [µM]
64 | COc1ccc(C2Oc3ccccc3C3=C2C(c2cccs2)n2ncnc2N3)cc1 (stereo unspecified) | 51.2 | > 100
65 | Cn1c(=O)c2c3c(sc2n2c(SCC(N)=O)nnc12)CC(C(C)(C)C)CC3 (stereo unspecified) | 19.4 | 32.9
66 | O=[N+]([O-])c1ccc(C2CC(c3ccccc3)=Nc3ccccc3S2)cc1 (stereo unspecified) | 5.11 | 6.66
67 | Cc1ccc(NS(=O)(=O)c2ccc(NC(=O)CN(c3cc([N+](=O)[O-])ccc3C)S(C)(=O)=O)cc2)c(C)c1 | 41.3 | > 100
68 | CC1(C)C2CCC1(C)C(OCC[N+](C)(C)CC(=O)OC1CCCCC1)C2 (stereo unspecified) | 10.9 | 12.2
69 | COc1cccc(COC(=O)c2ccc3c(=O)n4c(nc3c2)CCC4)c1OC | 21.1 | 50.6
70 | CC1CN(C(=S)SCC(=O)c2ccc([N+](=O)[O-])cc2)CC(C)O1 (stereo unspecified) | 27 | > 100
71 | CCn1c(=O)c(CCC(=O)N2CCN(c3ccccn3)CC2)c(C)c2c(C)nn(-c3cccc(C)c3)c21 | 19.5 | 27.5
72 | N#Cc1cccc(NC(=O)N2CCC(c3nc4c(nnn4Cc4cccc(Cl)c4)c(=O)[nH]3)CC2)c1 | 12.4 | 13.5
73 | COc1cc2c(-c3ccc4[nH]ccc4c3)c(-c3ccc(C#N)cc3)oc(=O)c2cc1OC | – | > 100
74 | COc1cc2c(cc1NC(=O)CN1C(=O)NC3(CCc4ccccc43)C1=O)oc1ccccc12 (stereo unspecified) | 29.5 | > 100
75 | CCOC(=O)c1ccc2c(c1)C(=O)N(C1CCCCC1)C2=O | 98.3 | > 100
76 | CC1=NN(c2ccccc2)C(=O)/C1=C\c1c(C)[nH]n(-c2ccccc2)c1=O | 18.2 | 46
77 | C=C(C)C1CC=C(CN2CCN(Cc3ccccc3)CC2)CC1 (stereo unspecified) | 15.7 | 25.9
78 | Cc1ccc(Cl)cc1N1CCN(CC(=O)NC2CCCc3ccccc32)CC1 (stereo unspecified) | 31.5 | 46.1
79 | CNC(CC(C)C)C(=O)NC1C(=O)NC(CC(N)=O)C(=O)NC2C(=O)NC3C(=O)NC(C(=O)NC(C(=O)O)c4cc(O)cc(O)c4-c4cc3ccc4O)C(O)c3ccc(c(Cl)c3)Oc3cc2cc(c3OC2OC(CO)C(O)C(O)C2OC2C[C@](C)(N)C(O)C(C)O2)Oc2ccc(cc2Cl)C1O (stereo partly specified) | 1.01 | 4.42
80 | CN(C)c1ccc(N=Nc2ccccc2C(=O)OCC(=O)NCC2CCCCC2)cc1 | 11 | 13.1
81 | O=C(Nc1ccc(Oc2cccc(C(F)(F)F)c2)nc1)c1cccs1 | 39.6 | > 100
82 | O=C(CCl)NCCCCCCCCCNC(=O)CCl | < 0.2 | < 0.2
83 | CCCCOc1ccc(C(=O)N/N=C/c2ccc(OCCN3CCCCC3)c(OC)c2)cc1 | 28.8 | 44.6
